From article PMC6199744, “Development of Chemical Proteomics for the Folateome and Analysis of the Kinetoplastid Folateome” (ACS Infectious Diseases, 2018)
Read-outs that look alike come from different tables or passages of the source.

Tests used:
Format in all cases: binding
[1] = molecular target: T1, HeLa cell extract proteins (Homo sapiens, UniProt O15027)
T1 construct: endogenous in cells; host or cells: HeLa cell extract

[2] = molecular target: T2, HeLa cell extract proteins (Homo sapiens, UniProt P32929)
T2 construct: endogenous in cells; host or cells: HeLa cell extract

[3] = molecular target: T3, HeLa cell extract proteins (Homo sapiens, UniProt Q8IUH3)
T3 construct: endogenous in cells; host or cells: HeLa cell extract
T3 sequence (Q8IUH3 1-476): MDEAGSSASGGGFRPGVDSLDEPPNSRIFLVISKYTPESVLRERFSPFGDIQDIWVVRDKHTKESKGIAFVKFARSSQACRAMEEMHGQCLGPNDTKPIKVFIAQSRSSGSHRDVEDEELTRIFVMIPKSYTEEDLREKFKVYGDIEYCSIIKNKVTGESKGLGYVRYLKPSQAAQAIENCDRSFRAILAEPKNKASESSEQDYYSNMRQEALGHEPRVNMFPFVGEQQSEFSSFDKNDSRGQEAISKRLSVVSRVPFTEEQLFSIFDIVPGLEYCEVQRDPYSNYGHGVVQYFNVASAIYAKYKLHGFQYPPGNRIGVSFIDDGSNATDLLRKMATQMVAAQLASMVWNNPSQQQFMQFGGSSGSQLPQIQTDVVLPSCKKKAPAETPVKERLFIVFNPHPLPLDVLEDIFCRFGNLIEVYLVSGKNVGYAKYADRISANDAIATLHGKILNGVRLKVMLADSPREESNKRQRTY

[4] = molecular target: T4, HeLa cell extract proteins (Homo sapiens, UniProt P13674)
T4 construct: endogenous in cells; host or cells: HeLa cell extract

[5] = molecular target: T5, HeLa cell extract proteins (Homo sapiens, UniProt Q96QK1)
T5 construct: endogenous in cells; host or cells: HeLa cell extract

[6] = molecular target: T6, HeLa cell extract proteins (Homo sapiens, UniProt O95163)
T6 construct: endogenous in cells; host or cells: HeLa cell extract
T6 sequence (O95163 1-1332): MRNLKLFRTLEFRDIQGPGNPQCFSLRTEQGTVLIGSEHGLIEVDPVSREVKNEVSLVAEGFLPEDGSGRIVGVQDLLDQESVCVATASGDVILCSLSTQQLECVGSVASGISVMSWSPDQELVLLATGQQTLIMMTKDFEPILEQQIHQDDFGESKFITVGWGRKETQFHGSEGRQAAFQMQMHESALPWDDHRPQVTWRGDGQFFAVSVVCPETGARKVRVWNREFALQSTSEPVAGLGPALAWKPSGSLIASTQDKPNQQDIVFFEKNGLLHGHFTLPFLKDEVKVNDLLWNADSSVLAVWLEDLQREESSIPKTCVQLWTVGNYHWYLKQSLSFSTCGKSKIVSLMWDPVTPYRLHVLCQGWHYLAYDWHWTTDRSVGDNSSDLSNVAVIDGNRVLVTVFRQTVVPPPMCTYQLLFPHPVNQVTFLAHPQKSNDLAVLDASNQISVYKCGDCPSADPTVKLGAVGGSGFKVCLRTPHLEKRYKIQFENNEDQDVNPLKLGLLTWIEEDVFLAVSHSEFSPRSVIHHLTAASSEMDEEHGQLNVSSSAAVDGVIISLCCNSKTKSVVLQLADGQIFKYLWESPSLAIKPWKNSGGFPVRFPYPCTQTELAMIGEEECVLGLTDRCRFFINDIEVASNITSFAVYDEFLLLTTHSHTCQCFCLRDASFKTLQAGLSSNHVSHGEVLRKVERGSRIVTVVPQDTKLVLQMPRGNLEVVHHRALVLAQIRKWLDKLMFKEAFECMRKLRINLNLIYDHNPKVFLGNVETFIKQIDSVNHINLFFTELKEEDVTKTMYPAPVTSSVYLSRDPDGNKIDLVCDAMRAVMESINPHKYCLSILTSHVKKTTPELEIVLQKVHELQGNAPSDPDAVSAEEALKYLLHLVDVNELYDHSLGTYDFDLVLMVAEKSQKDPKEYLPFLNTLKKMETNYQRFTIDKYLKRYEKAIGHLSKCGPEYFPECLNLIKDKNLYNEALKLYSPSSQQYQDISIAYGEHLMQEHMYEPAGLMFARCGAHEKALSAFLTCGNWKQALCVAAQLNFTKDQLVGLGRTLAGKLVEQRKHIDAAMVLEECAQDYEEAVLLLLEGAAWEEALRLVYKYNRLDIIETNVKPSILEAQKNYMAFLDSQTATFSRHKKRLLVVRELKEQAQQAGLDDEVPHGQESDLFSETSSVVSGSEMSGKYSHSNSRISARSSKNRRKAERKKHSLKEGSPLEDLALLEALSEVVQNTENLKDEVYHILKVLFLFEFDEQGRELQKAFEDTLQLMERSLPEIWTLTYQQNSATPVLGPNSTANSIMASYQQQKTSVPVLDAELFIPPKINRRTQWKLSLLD

[7] = molecular target: T7, HeLa cell extract proteins (Homo sapiens, UniProt Q9BT22)
T7 construct: endogenous in cells; host or cells: HeLa cell extract
T7 sequence (Q9BT22 1-464): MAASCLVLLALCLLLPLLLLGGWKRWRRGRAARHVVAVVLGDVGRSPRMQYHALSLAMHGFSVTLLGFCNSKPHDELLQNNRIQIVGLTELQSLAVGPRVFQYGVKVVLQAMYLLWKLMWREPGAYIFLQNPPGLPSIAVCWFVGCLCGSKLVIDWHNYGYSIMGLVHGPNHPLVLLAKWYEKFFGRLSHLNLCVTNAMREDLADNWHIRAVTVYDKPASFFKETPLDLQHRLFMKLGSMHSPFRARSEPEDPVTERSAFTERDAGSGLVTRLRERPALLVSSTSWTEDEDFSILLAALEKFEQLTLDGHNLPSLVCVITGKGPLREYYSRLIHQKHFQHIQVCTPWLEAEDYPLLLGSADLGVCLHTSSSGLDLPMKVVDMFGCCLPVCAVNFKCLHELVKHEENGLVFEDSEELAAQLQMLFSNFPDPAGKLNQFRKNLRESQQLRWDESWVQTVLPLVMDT

[8] = molecular target: T8, HeLa cell extract proteins (Homo sapiens, UniProt O43148)
T8 construct: endogenous in cells; host or cells: HeLa cell extract

[9] = HeLa, protein SEC16A (HY[…] LOC9919)
[10] = HeLa, protein RBM45 (ISOFORM 1 OF DEVELOPMENTALLY-REGULATED RNA-BINDING PROTEIN 1)

T2 sequence (P32929 whole entry): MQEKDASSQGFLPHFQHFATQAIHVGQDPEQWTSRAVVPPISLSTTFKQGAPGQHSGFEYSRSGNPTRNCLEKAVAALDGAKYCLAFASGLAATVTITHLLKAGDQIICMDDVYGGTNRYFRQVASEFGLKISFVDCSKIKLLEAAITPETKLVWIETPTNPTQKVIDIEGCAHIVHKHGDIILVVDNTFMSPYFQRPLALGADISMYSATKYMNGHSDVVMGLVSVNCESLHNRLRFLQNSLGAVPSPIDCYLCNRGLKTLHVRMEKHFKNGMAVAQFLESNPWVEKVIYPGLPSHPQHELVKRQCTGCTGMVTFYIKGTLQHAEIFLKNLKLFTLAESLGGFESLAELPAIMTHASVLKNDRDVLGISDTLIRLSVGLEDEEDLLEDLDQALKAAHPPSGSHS
T4 sequence (P13674 18-534): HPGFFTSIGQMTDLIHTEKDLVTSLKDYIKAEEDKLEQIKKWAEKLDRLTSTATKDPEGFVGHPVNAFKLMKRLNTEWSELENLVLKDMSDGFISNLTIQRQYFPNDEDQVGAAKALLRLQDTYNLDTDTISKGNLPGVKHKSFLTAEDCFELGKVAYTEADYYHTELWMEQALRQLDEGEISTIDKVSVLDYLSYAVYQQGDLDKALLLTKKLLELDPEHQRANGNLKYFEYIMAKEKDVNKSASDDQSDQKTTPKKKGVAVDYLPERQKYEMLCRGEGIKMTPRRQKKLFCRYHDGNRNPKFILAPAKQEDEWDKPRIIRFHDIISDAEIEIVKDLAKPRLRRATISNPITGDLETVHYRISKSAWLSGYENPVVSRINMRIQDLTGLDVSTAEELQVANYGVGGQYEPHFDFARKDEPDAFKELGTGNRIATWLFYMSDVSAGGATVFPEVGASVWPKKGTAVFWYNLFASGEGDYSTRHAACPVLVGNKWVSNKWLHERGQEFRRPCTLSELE
T8 sequence (O43148 whole entry): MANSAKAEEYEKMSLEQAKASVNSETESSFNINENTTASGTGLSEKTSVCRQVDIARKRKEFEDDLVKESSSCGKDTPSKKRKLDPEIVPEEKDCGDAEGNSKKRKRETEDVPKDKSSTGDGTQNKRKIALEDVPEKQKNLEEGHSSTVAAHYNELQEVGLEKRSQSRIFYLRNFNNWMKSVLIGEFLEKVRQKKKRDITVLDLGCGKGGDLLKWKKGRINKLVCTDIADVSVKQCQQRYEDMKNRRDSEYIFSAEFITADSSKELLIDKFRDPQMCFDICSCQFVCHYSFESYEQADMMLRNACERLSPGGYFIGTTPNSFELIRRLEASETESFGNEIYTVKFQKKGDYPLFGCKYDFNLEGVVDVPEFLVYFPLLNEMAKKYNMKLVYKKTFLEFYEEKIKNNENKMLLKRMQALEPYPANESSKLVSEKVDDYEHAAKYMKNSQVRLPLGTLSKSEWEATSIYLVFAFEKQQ
T1 sequence (O15027 whole entry): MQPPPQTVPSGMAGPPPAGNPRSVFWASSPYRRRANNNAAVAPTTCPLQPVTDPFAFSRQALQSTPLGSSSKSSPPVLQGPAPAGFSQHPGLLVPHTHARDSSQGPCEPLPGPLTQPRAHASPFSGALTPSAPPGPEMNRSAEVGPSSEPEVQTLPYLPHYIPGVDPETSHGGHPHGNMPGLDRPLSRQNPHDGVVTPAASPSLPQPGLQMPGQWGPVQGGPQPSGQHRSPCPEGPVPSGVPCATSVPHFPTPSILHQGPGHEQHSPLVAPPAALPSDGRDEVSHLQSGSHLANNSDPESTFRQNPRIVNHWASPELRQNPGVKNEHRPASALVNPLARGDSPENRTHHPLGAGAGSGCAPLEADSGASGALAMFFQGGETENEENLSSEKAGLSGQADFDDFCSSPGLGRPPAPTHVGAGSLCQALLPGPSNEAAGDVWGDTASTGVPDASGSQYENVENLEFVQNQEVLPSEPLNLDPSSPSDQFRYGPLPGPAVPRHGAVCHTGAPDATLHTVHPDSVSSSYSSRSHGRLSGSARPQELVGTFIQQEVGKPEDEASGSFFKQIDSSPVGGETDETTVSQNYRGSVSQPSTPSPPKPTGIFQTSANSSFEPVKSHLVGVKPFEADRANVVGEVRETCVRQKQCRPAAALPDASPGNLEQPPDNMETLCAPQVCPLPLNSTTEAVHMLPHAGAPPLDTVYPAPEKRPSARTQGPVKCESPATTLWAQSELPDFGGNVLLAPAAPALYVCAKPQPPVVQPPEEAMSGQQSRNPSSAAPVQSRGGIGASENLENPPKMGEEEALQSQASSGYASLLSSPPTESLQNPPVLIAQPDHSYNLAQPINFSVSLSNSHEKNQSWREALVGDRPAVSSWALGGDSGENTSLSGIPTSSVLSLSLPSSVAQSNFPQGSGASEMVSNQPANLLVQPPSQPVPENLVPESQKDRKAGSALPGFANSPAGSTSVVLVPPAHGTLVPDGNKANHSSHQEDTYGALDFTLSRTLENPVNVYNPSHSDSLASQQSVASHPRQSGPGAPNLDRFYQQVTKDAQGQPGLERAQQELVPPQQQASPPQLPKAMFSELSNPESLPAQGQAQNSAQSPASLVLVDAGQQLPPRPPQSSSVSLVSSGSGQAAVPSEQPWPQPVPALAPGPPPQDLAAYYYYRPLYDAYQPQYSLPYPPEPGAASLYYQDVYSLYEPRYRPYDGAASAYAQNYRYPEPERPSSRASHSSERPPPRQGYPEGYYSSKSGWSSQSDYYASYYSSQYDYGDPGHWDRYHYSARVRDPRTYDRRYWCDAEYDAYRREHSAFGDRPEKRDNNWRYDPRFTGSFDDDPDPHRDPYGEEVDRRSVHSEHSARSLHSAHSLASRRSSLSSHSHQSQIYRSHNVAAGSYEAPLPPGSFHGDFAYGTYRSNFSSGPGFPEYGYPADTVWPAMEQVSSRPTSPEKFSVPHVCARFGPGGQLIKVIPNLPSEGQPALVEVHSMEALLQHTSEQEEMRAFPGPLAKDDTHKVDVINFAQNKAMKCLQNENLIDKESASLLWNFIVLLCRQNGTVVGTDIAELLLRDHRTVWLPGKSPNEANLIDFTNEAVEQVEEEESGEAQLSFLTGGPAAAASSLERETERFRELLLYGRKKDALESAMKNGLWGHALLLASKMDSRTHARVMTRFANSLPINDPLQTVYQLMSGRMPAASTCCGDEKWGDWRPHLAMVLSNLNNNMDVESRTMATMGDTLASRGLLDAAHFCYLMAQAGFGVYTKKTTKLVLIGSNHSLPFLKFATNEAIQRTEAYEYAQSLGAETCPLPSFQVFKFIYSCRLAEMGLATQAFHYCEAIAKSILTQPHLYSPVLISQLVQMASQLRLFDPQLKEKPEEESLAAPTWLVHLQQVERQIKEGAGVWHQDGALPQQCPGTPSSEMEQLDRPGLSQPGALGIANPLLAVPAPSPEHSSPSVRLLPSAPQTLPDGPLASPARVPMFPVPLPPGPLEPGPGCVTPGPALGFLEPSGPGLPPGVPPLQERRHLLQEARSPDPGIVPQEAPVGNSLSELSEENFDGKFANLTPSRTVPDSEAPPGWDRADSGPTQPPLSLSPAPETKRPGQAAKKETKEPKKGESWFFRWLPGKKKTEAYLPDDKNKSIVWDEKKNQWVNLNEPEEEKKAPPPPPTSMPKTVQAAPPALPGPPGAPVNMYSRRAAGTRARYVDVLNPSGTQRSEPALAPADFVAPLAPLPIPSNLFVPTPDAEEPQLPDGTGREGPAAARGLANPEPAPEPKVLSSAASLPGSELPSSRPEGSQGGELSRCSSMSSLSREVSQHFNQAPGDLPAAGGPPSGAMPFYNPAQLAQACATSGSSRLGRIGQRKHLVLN

SMILES | fold changes relative to vehicle control ([2]; protein CTH, HeLa) | fold changes relative to vehicle control [3, 10] | fold changes relative to vehicle control ([4]; HeLa, captured protein P4HA1) | fold changes relative to vehicle control ([5]; HeLa, protein VPS35) | fold changes relative to vehicle control ([6]; HeLa, captured protein IKBKAP) | fold changes relative to vehicle control ([7]; HeLa, protein ALG1) | fold changes relative to vehicle control ([8]; HeLa, captured protein RNMT) | fold changes relative to vehicle control ([1]; HeLa, protein SEC16A) | fold changes relative to vehicle control ([3]; HeLa, protein RBM45) | fold changes relative to vehicle control ([4]; HeLa, protein P4HA1) | fold changes relative to vehicle control ([5]; protein VPS35, HeLa) | fold changes relative to vehicle control ([6]; protein IKBKAP, HeLa) | fold changes relative to vehicle control ([7]; captured protein ALG1, HeLa) | fold changes relative to vehicle control ([8]; HeLa, protein RNMT) | also measured
Nc1nc2c(c(=O)[nH]1)N(C=O)C(CNc1ccc(C(=O)N[C@@H](CCC(=O)O)C(=O)O)cc1)CN2 (some centres unmarked) [LEU, leucovorin] | 0.82 | 1.12 | 1.02 | 0.91 | 1.15 | 0.85 | 0.88 | – | – | – | – | – | – | – | fold changes relative to vehicle control [1, 9]: 1.25
NCCCNc1ccc(C(=O)NC(CCC(=O)O)C(=O)O)cc1 (centres unmarked) [compound 7] | 0.87 | 0.96 | 1.04 | 1.1 | 1.01 | 0.99 | 1.02 | – | – | – | – | – | – | – | fold changes relative to vehicle control ([1]; HeLa, protein SEC16A (HYPOTHETICAL PROTEIN LOC9919)): 1.3
CCCCCCOc1cccc(Cc2cnc(N)nc2N)c1 [compound 2] | 1.43 | – | – | – | – | – | – | 0.97 | 0.99 | 1.05 | 1.7 | 1.3 | 0.91 | 0.97 | –
CCCCCCOc1ccc(Cc2cnc(N)nc2N)cc1 [compound 1] | 0.86 | – | – | – | – | – | – | 1 | 1.06 | 0.9 | 1.13 | 1.33 | 0.88 | 0.92 | –
Nc1nc2cccc(-c3ccccc3)c2n1Cc1ccc(Cl)c(Cl)c1 [compound 3] | 0.91 | – | – | – | – | – | – | 1.19 | 0.96 | 0.98 | 0.96 | 1.12 | 1.05 | 0.93 | –
NCCOCCOCC(=O)Nc1nc2ncc(CNc3ccc(C(=O)NC(CCC(=O)O)C(=O)O)cc3)nc2c(=O)[nH]1 (centres unmarked) [compound 6] | 0.95 | 1 | 1 | 1.15 | 1.2 | 0.93 | 0.79 | – | – | – | – | – | – | – | fold changes relative to vehicle control [1, 9]: 1.13
Nc1nc2[nH]cc(CCc3ccc(C(=O)N[C@@H](CCC(=O)O)C(=O)O)cc3)c2c(=O)[nH]1 [PTX, pemetrexed] | – | – | – | – | – | – | – | – | – | – | – | – | – | – | fold changes relative to vehicle control [1]: 1.17; fold changes relative to vehicle control [2]: 0.85; fold changes relative to vehicle control [3]: 1.04; fold changes relative to vehicle control [4]: 0.88; fold changes relative to vehicle control [5]: 1.05; fold changes relative to vehicle control [6]: 1.11; fold changes relative to vehicle control [7]: 0.81; fold changes relative to vehicle control [8]: 0.83
